Measurements reported in patent publication US9493453B2, “Piperazinyl pyrimidine derivatives, preparation method and use thereof” (INSTITUTE OF PHARMACOLOGY AND TOXICOLOGY ACADEMY OF …, priority 2012, dated 2016).
Read-outs that look alike come from different tables or passages of the source.

Assays:
CCR4 receptor = molecular target: T1, CCR4 receptor (Homo sapiens, UniProt P51679); assay: Inhibition of MDC/TARC/C27 mediated chemotactic response of CCR4-transfected HEK293 cells (Boyden chamber); format: cell-based; conditions: chemotactic inhibition rate, compound 1 μM, HEK293 cells transfected with pCDI-CCR4, 5 hours
T1 construct: cDNA fragments of receptor open reading frame were respectively inserted into pcDI; expressed in transfected cells; host or cells: HEK293 cells, transiently transfected by electroporation with pCDI-CCR4
T1 sequence (P51679 1-360): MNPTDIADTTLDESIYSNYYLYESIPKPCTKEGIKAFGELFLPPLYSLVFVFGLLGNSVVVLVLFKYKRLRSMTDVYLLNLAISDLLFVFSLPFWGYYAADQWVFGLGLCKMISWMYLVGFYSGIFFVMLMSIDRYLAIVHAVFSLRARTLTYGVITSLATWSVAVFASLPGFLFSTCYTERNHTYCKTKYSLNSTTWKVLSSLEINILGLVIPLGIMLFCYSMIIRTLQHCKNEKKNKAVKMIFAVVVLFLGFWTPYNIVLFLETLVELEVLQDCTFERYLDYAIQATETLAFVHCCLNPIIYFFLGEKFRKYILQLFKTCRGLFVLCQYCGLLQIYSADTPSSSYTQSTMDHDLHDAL
Source text: Whether or not compounds 1-14 of the present invention can inhibit MDC (Peprotech) mediated chemotactic response of HEK293 cells was studied by using Boyden chamber (Neuro Probe, Inc.).
1. Construction of Receptor Expression Plasmid:
cDNA fragments including human chemokine receptor open reading frame were obtained by the following method: CCR4 receptor was cloned from a cDNA library of K562 cells through polymerase chain reaction (PCR). Primers were designed according to the sequence of Gen-Bank™ accession: CCR4 (NM_005508.2). cDNA fragments of receptor open reading frame were respectively inserted into pcDI (vector transformed in the chamber: eukaryotic expression vector obtained by replacing a BglII KpnI fragment of pcDNA3 (Invitrogen Corporation) plasmid with a BglII KpnI fragment of pCI (Promega Corporation) plasmid) expression vector so as to make them effectively express in HEK293 cells.
HEK293 cells were cultured in RPMI 1640 (Life Technologies, Inc.) containing 10% heat-inactivated fetal bovine serum, 100 U/mL penicillin, 100 μg/mL streptomycin. Each 4×10^6 HEK293 cells/400 μL were transiently transfected through electroporation with 15 μg chemokine receptor expression plasmids, under the condition of 120 V for 20 ms, the instrument used being electric pulse generator (Electro Square porator ECM 830, BTX, San Diego, Calif.). After 36-48 hr, chemotactic assay was carried out.
3. The Inhibitory Effect on MDC/TARC/C27 Mediated Chemotactic Response of HEK293 Cells
Chemokines MDC/TARC/C27 were diluted to 10 ng/mL with RPMI1640 (Life Technologies, Inc.), 0.1% BSA (Sigma), and added to lower holes in a 48-hole chemotactic chamber, 27.5 μL each hole. Eukaryotic expression plasmids pCDI-CCR4 were electrically shifted to HEK293 cells, and cultured normally for 36 hr. The cells were digested, re-suspended with RPMI1640, 10% FBS (Life Technologies, Inc.), and subjected to rotary incubation at 37° C. for 6.5 hours. The cells were washed twice with RPMI1640, and suspended in RPMI1640, 0.1% BSA, with a final concentration of 1×10^6/mL. The cells and the candidate compound dissolved in DMSO (Sigma) were subjected to rotary incubation at room temperature for half an hour, the final concentration of the candidate compound being 1 μM, and the final concentration of DMSO being 0.1%, and then added to upper holes in the chemotactic chamber, 55 μL each hole. The two layers were spaced by a polycarbon membrane with pore size of […] (Neuro Probe, Inc.). The chemotactic reaction was carried out in 5% CO2 at 37° C. for 5 hours. There were three groups of control in the experiment, wherein the first group was positive control, in which the transfected cells were directly added to upper holes without incubated with the candidate compound, while chemokines MDC/TARC/C27 were added to lower holes. The second group was negative control, in which the transfected cells were directly added to upper holes without incubated with the candidate compound, while RPMI1640, 0.1% BSA were added to lower holes. The third group was solvent DMSO control of the candidate compound, in which the transfected cells and DMSO were incubated at room temperature, the final concentration of DMSO being 0.1%, while chemokines MDC/TARC/C27 were added to lower holes. After completion of the chemotactic reaction, the membrane was removed, fixed and stained, and, at 400× high magnification, five horizons were randomly selected to count the cells, which were then summed. The ratio of the sum of the numbers of cells in five horizons at high magnification in each experimental group to the sum of the numbers of cells in five horizons at high magnification in the negative control group is obtained as Chemotactic Index (CI). Chemotactic inhibition rate was calculated as follows: […]

mice rhinitis model = assay: Mice rhinitis model experiment (OVA-sensitized BALB/c mice); format: in vivo; conditions: Example 8 compound 1 μg/Kg
Method: Mice Rhinitis Model Experiment
Female BALB/c mice (6-8 weeks) were sensitized with chicken ovalbumin (OVA, Sigma-Aldrich, St Louis, Mo., USA). The compound of the present invention (for example, the compound of Example 8) was administered to nasal mucosa, at a dose 1 μg/Kg. Glucocorticoid hormonal drug budesonide, a first-line clinical drug, was used as positive control, at a dose 1.28 mg/Kg. Meanwhile, there were provided a normal group wherein the mice were not sensitized and not administered, and an OVA group wherein the mice were sensitized and not administered. The following five indicators were detected: the number of sneezing, the number of nasal scratching within 10 min after administration; IL-4 level in bronchoalveolar lavage fluid; serum IgE level; lung tissue inflammation score. Lung tissue inflammation score was rated according to a single blind method: inflammation was divided into four levels from mild to severe, marked as 0-3 scores: 0 representing no detected inflammation; 1 representing occasional inflammatory cells being visible; 2 representing bronchus or blood vessel being surrounded by eosinophils, but less than five cell layers; 3 representing bronchus or blood vessel being surrounded by a large number of eosinophils, with 5 or more cell layers.

[1] = OVA-sensitized female BALB/c mice, nasal mucosa, budesonide 1.28 mg/Kg, within 10 min after administration
[2] = versus OVA-sensitized group, budesonide 1.28 mg/Kg

Compound: O=C([C@H]1CCCCN1)N1CCN(c2nc(Cl)cc(NCc3ccc(Cl)cc3Cl)n2)CC1 [Compound 8, (R)-{4-{4-chloro-6-[(2,4-dichlorobenzyl)amino]pyrimidin-2-yl}piperazin-1-yl}(piperidin-2-yl)methanone]
- inhibition at 1 µM (CCR4 receptor; chemokine C27 10 ng/mL, read-out: C27 inhibition rate): 69.8%
- inhibition at 1 µM (CCR4 receptor; chemokine MDC 10 ng/mL, read-out: MDC inhibition rate): 79.2%
- inhibition at 1 µM (CCR4 receptor; chemokine TARC 10 ng/mL, read-out: TARC inhibition rate): 60.4%
- IL-4 (mice rhinitis model; IL-4 level in bronchoalveolar lavage fluid, OVA-sensitized mice, budesonide 1.28 mg/Kg): 3.7 ± 0.3 pg/mL
- Nasal scratching (mice rhinitis model; [1]): 8.0 ± 0.6 times/10 mins
- Sneezing (mice rhinitis model; [1]): 29.0 ± 3.5 times/10 mins
- Inflammation score (mice rhinitis model; lung tissue inflammation score 0-3, single blind, OVA-sensitized mice, budesonide 1.28 mg/Kg): 2.2 ± 0.4
- IgE (mice rhinitis model; serum IgE level, OVA-sensitized mice, budesonide 1.28 mg/Kg): 2861 ± 49 ng/mL
- serum IgE level (result in words) (mice rhinitis model; versus OVA-sensitized and normal control groups, budesonide 1.28 mg/Kg): higher than that of the normal control group
- IL-4 level in bronchoalveolar lavage fluid (result in words) (mice rhinitis model; [2]): significantly lower than that of the OVA-sensitized group
- lung tissue inflammation score (result in words) (mice rhinitis model; [2]): lower than that of the OVA-sensitized group
- number of sneezing (result in words) (mice rhinitis model; [2]): could significantly reduce the number of sneezing
- number of nasal scratching (result in words) (mice rhinitis model; versus other groups): lower than that of any of other groups
